Results: patent US20210290581A1, “NEUROREGENERATION IMPROVED BY KETONE” (UNIVERSITY OF SOUTH FLORIDA, priority 2016, published 2021)

How the values were obtained:
rat primary neurons [1] = assay: scratch assay in primary neuronal cell cultures followed for 24 hours with CytoSmart system; format: cell-based, Sprague Dawley rats; settings: 2 mM
Protocol: Ketone bodies serve as alternative fuel for the brain when glucose availability is limited. In humans, BHB is synthesized in the liver from acetoacetate, the first ketone produced in the fasting state. Its biosynthesis is catalyzed by the enzyme beta-hydroxybutyrate dehydrogenase. The effect of ketone bodies on cell regeneration in primary neuronal cell cultures was tested by using a scratch assay that was followed for 24 hours with a CYTOSMART system.
(§1) Cortical neurons from embryonic (E18) Sprague Dawley rats were isolated and cultured as described in Katnic, Guerrero et al. 2006. Briefly, excised brains were digested with 0.25% trypsin. Isolated cells were suspended in DMEM supplemented with fetal bovine serum (FBS, 10%, heat inactivated), penicillin (100 IU/ml), streptomycin ([…]) and amphotericin B1 ([…]) (Antibiotic/Antimycotic) and plated on poly-L-lysine coated coverslips. Following 24 hour incubation, the DMEM solution was replaced with Neurobasal media supplemented with B-27 (10 ml) and 0.5 mM L-glutamine. 3 week old rat primary neurons were exposed to 2 mM R,S-Sodium-3-hydroxibutyrate. The cell monolayer was scraped with a P100 pipette tip to create a scratch. Cell debris was removed by washing with culture medium. 100 snapshots were taken of the cell migration/cell regeneration into the scratch space over 24 hours by CytoSmart system.

rat primary neurons [2] = assay: immunofluorescence staining of the scratch assay (cell nuclei, Beta tubulin, synapsins); format: cell-based, Sprague Dawley rats; settings: 2 mM; after 24 hours; 10×, 20×, 60×; compared to control
Protocol: as §1
The primary neurons underwent immunofluorescence staining. This fluorescence imaging on the scratch assay (after 24 hours/3-week old primary neurons) can be seen in FIGS. 6A-6B, 7A-7B, 8A-8B, and 9A-9B. The images have been lightened for illustrative purposes. Each of these figures includes four (4) images, labeled as I-IV. […]

CC(O)CC(=O)[O-].[Na+] (centres unmarked) [R,S-Sodium-3-hydroxibutyrate]
DAPI stained cell nuclei in the scratch space area (rat primary neurons [1]; 24 hours, 20× (p=0.01) and 10× (p=0.0004) magnification, versus control): significantly more DAPI stained cell nuclei | increase in cell coverage per 24 hours (rat primary neurons [1]; 24 hours, control about 0.9%): about 3.3% | cell migration and regeneration of the damaged area (rat primary neurons [1]; over the 24-hour period, versus control): more intense cell migration and regeneration of the damaged area | cell nuclei visible around the regeneration site and in the scratch area (rat primary neurons [2]): More cell nuclei are visible around the regeneration site | density of synapsins and tubulin at the regeneration site (rat primary neurons [2]): higher density of synapsins and tubulin
